Measured values: PubChem BioAssay (NCI)
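Exposure lasted 48 hours, with cells grown in 96-well plates and compounds tested at five concentrations. TGI: concentration producing complete growth inhibition.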

What was measured:
Experiment in all cases: NCI tumour cell line growth inhibition, 48 h
HCT-116 colon = tested on: HCT-116 colon
HS 578T breast = tested on: HS 578T breast
HT29 colon = tested on: HT29 colon
K-562 leukemia = tested on: K-562 leukemia
KM12 colon = tested on: KM12 colon
LOX IMVI melanoma = tested on: LOX IMVI melanoma
M14 melanoma = tested on: M14 melanoma
MDA-MB-231 breast = tested on: MDA-MB-231 breast
MDA-N = tested on: MDA-N
NCI-H460 lung = tested on: NCI-H460 lung
NCI/ADR-RES ovarian = tested on: NCI/ADR-RES ovarian
OVCAR-4 ovarian = tested on: OVCAR-4 ovarian
SF-539 CNS = tested on: SF-539 CNS
SK-MEL-2 melanoma = tested on: SK-MEL-2 melanoma
SK-MEL-5 melanoma = tested on: SK-MEL-5 melanoma
SNB-75 CNS = tested on: SNB-75 CNS
SW-620 colon = tested on: SW-620 colon
T-47D breast = tested on: T-47D breast
UO-31 renal = tested on: UO-31 renal

| Structure (SMILES) | TGI (HCT-116 colon) [µM] | TGI (HS 578T breast) [µM] | TGI (HT29 colon) [µM] | TGI (K-562 leukemia) [µM] | TGI (KM12 colon) [µM] | TGI (LOX IMVI melanoma) [µM] | TGI (M14 melanoma) [µM] | TGI (MDA-MB-231 breast) [µM] | TGI (MDA-N) [µM] | TGI (NCI-H460 lung) [µM] | TGI (NCI/ADR-RES ovarian) [µM] | TGI (OVCAR-4 ovarian) [µM] | TGI (SF-539 CNS) [µM] | TGI (SK-MEL-2 melanoma) [µM] | TGI (SK-MEL-5 melanoma) [µM] | TGI (SNB-75 CNS) [µM] | TGI (SW-620 colon) [µM] | TGI (T-47D breast) [µM] | TGI (UO-31 renal) [µM] |
| --- | --- | --- | --- | --- | --- | --- | --- | --- | --- | --- | --- | --- | --- | --- | --- | --- | --- | --- | --- |
| CC1(C)O[C@@H]2[C@@H]3OC(=O)C[C@@H]3[C@@H](COCc3ccccc3)[C@@H]2O1 | > 100 | > 100 | > 100 | > 100 | > 100 | > 100 | > 100 | > 100 | > 100 | > 100 | > 100 | > 100 | > 100 | > 100 | > 100 | > 100 | > 100 | > 100 | > 100 |
| COC(=O)CCC(=O)c1ccc2c(c1)CC1(C2)Cc2ccc3c(c2C1)CCCC3=O (stereo not given) | > 100 | > 100 | > 76.9 | 9.44 | > 85 | > 100 | > 57 | > 100 | 47.9 | > 100 | > 100 | > 74 | 42.6 | 36.9 | 22.5 | > 100 | > 100 | > 100 | > 59.3 |
| COC(Cc1ccccc1)NC(C)=O (stereo not given) | > 100 | > 100 | > 100 | > 100 | > 100 | > 100 | > 100 | > 100 | > 100 | > 100 | > 100 | > 100 | > 100 | > 100 | > 100 | > 100 | > 100 | > 100 | > 100 |
| COC(=O)C1CCC(=O)N1C(c1ccc2c(c1)OCO2)c1ccc2c(c1)OCO2 (stereo not given) | > 100 | > 100 | > 100 | > 100 | > 100 | > 100 | > 100 | > 100 | > 100 | > 100 | > 100 | > 100 | > 100 | > 100 | > 100 | > 100 | > 100 | > 100 | > 100 |
| CCCCCC(/C=N/N)C(O)(C(F)(F)F)C(F)(F)F (stereo not given) | 9.02 | 7.12 | > 10 | – | > 10 | 9.49 | > 10 | > 10 | > 10 | 8.03 | > 10 | > 10 | > 10 | > 10 | 3.92 | 9.63 | > 10 | > 10 | – |
| Cc1cccc(NC(=S)N/N=C(/c2ccccc2)c2ccccn2)c1 | 13 | 76.1 | 17.4 | 2.84 | 13.8 | 11.5 | 2.58 | 6.73 | 20.8 | 8.91 | 6.63 | 17.2 | 12.8 | 14.5 | 7.18 | 22.1 | 20.4 | 19.6 | 10.4 |
| COC(=O)c1scc(N)c1-n1ccc(=O)[nH]c1=O | > 100 | > 100 | > 100 | > 100 | > 100 | > 100 | > 100 | > 100 | > 100 | > 100 | > 100 | > 100 | > 100 | > 100 | > 100 | > 100 | > 100 | > 100 | > 100 |
| O=C(/C(=C/c1cccs1)c1ccccc1)c1ccccc1 | > 100 | > 100 | > 100 | > 100 | > 100 | > 100 | > 100 | > 100 | > 100 | > 100 | > 100 | > 100 | 87.6 | > 100 | > 100 | > 100 | > 100 | > 100 | > 100 |
| CCCCCCCCCCCCP(=O)(O)OCC(N)C(=O)O (stereo not given) | 30.3 | 58.2 | > 100 | > 100 | – | > 100 | > 100 | 65.3 | 55.4 | 89.6 | > 100 | > 100 | 47.4 | 91.9 | > 100 | 40.3 | > 100 | > 100 | 26 |
| O=C(N/C(=C\c1ccccc1)C1Nc2ccccc2C(=O)O1)c1ccccc1 (stereo not given) | 36.8 | 99.7 | > 100 | 51.9 | 31.2 | 36.1 | 52.1 | > 100 | 56.6 | 35.5 | 70.9 | > 100 | 43.7 | 62 | 34.7 | > 100 | 59.6 | > 100 | 44.2 |
| CCN(CC)C1=Nc2ccccc2-n2c(C)cnc2C1 | > 100 | > 100 | > 100 | > 100 | > 100 | > 100 | > 100 | > 100 | > 100 | > 100 | > 100 | > 100 | > 100 | > 100 | > 100 | > 100 | > 100 | > 100 | > 100 |
| CC(NC(=O)C(N)CC(=O)O)NC(=O)N1CCCC1 (stereo not given) | > 100 | > 100 | > 100 | > 100 | > 100 | > 100 | > 100 | > 100 | > 100 | > 100 | > 100 | > 100 | > 100 | > 100 | > 100 | > 100 | > 100 | > 100 | > 100 |
